Tested on: emerging SPEM cells at the bases of fundic glands
Assay: Gene microarray analysis of laser-capture microdissected chief cells and emerging SPEM cells (Affymetrix Mouse 430 2.0)
Format: in vivo, gastrin-deficient mice
Description: See Nomura, S., Yamaguchi, H., Wang, T. C., Lee, J. R., and Goldenring, J. R. 2004. Alterations in gastric mucosal lineages induced by acute oxyntic atrophy in wild type and gastrin deficient mice. Amer. J. Physiol. 288:G362-G375. […] To examine this hypothesis more directly, chief cells were microdissected from the very bases of untreated gastrin knockout mice as well as SPEM cells at the base of fundic glands after 1 and 3 days of treatment with DMP-777. Total RNA was prepared from 10,000 cells isolated from 4 different mice in each group. For each of the 12 samples, linear amplification was performed and Affymetrix Mouse 2.0 gene microarrays were probed. […] Second, 30 genes were identified as being involved in G1-S interface transition, including 5 MCM proteins, BRCA1, RIS2, RAD51, TACC3 and ligase1. Immunocytochemistry was used to confirm the upregulation of MCM3 as well as TACC3 in SPEM cells located at the base of fundic glands in mice treated for 1 or 3 days with DMP-777. All of these changes are consistent with alterations moving towards a proliferative phenotype. […] See Nomura, S., Yamaguchi, H., Wang, T. C., Lee, J. R., and Goldenring, J. R. 2004. Alterations in gastric mucosal lineages induced by acute oxyntic atrophy in wild type and gastrin deficient mice. Amer. J. Physiol. 288:G362-G375. Thus the up-regulation of proteins involved in the G1/S interface is also consistent with transdifferentiation of chief cells into SPEM, since such changes would require a global transcriptome, alterations that would require unwinding of DNA and changes in gene activation including alteration in DNA methylation.
Gastrin-deficient mice were constructed by targeted disruption of the gastrin gene and were maintained on a C57BL/6 background (Nomura S, Yamaguchi H, Wang T C, Lee J R, Goldenring J R. Alterations in gastric mucosal lineages induced by acute oxyntic atrophy in wild type and gastrin deficient mice. Amer.J.Physiol. 2004; In Press). Mice were treated for 1 or 3 days with oral gavage administration of DMP-777 (a gift of DuPont Pharmaceuticals), formulated in 0.5% methylcellulose (administered orally as a gavage once daily at 350 mg/kg/day). Untreated mice were utilized as controls. Mice were sacrificed and their stomachs were excised and opened along the greater curvature and processed for frozen sections for laser capture microdissection. From the untreated Gastrin-deficient mice, chief cells were microdissected from the bases of gastric glands. The emerging SPEM cells were microdissected from the bases of fundic glands of DMP-777-treated Gastrin-deficient mice after 1 or 3 days of oral drug administration. Cell collections (10,000 cells) and extractions of total RNA were performed as previously described (Nomura S, Baxter S, Yamaguchi T, Leys C, Vartapetian A B, Fox J G, Lee J R, Wang T C, Goldenring J R. Relationship of spasmolytic polypeptide expressing metaplasia (SPEM) to pre-neoplasia in H. felis-infected mice. Gastroenterology 2004; 127:582-594).
Total RNA from microdissected cells were reverse transcribed and amplified through two rounds of linear amplification using a Nugen Ovation kit to amplify and label 10-20 ng of RNA. The resulting single-strand cDNA product was purified by binding to and elution from a Qiagen QIAQUICK® column. The cDNA product was then quantitated and 2.2 μg of the fragmented, labeled product was hybridized to Affymetrix Mouse 430 2.0 microarrays overnight, with staining and scanning performed the next day. Gene expression was analyzed among microdissected cells from 4 untreated gastrin-deficient mice 4 mice treated with DMP-777 for one day and 4 mice treated with DMP-777 for three days. The raw gene expression data (.cel files) were converted to expression values using the Affy function in R (see the Bioconductor website). […]

[1] = gastrin-deficient mice, 350 mg/kg/day oral, 1 day, microdissected SPEM cells vs untreated chief cells
[2] = gastrin-deficient mice, 350 mg/kg/day oral, 1 day, microdissected SPEM cells vs untreated chief cells, first line for this gene
[3] = gastrin-deficient mice, 350 mg/kg/day oral, 1 day, microdissected SPEM cells vs untreated chief cells, second line for this gene
[4] = gastrin-deficient mice, 350 mg/kg/day oral, 3 days, microdissected SPEM cells vs untreated chief cells
[5] = gastrin-deficient mice, 350 mg/kg/day oral, 3 days, microdissected SPEM cells vs untreated chief cells, first line for this gene
[6] = gastrin-deficient mice, 350 mg/kg/day oral, 3 days, microdissected SPEM cells vs untreated chief cells, second line for this gene

CCC[C@@H](NC(=O)N1C(=O)C(CC)(CC)[C@@H]1Oc1ccc(C(=O)N2CCN(C)CC2)cc1)c1ccc2c(c1)OCO2 [DMP-777]
Top2a transcript, 1 DAY DMP-777 vs CONTROL [1]: 7.3
Trip13 transcript, 1 DAY DMP-777 vs CONTROL [1]: 10.3
Uhrf1 transcript, 1 DAY DMP-777 vs CONTROL [1]: 35.3
WDNM1 transcript, 1 DAY DMP-777 vs CONTROL [1]: 5.2
Wfdc2 transcript, 1 DAY DMP-777 vs CONTROL [1]: 8.9
Mcm5 * transcript, 1 DAY DMP-777 vs CONTROL [2]: 18.1
Mcm10 * transcript, 1 DAY DMP-777 vs CONTROL [2]: 12.2
Prc1 transcript, 1 DAY DMP-777 vs CONTROL [2]: 7.5
Rad51ap1 * transcript, 1 DAY DMP-777 vs CONTROL [2]: 12.9
Ris2* transcript, 1 DAY DMP-777 vs CONTROL [2]: 21.5
Mcm5 * transcript, 1 DAY DMP-777 vs CONTROL [3]: 13.9
Mcm10 * transcript, 1 DAY DMP-777 vs CONTROL [3]: 6.7
Prc1 transcript, 1 DAY DMP-777 vs CONTROL [3]: 7.0
Rad51ap1 * transcript, 1 DAY DMP-777 vs CONTROL [3]: 8.7
Ris2* transcript, 1 DAY DMP-777 vs CONTROL [3]: 7.3
5ssca1 transcript, 3 DAYS DMP-777 vs CONTROL [4]: 12.3
Atf3 transcript, 3 DAYS DMP-777 vs CONTROL [4]: 10.1
Cdc2a transcript, 3 DAYS DMP-777 vs CONTROL [4]: 7.0
Cdca1 transcript, 3 DAYS DMP-777 vs CONTROL [4]: 8.1
Cdca5 transcript, 3 DAYS DMP-777 vs CONTROL [4]: 36.1
CdcaS transcript, 3 DAYS DMP-777 vs CONTROL [4]: 8.7
Cenph transcript, 3 DAYS DMP-777 vs CONTROL [4]: 10.7
Clspn transcript, 3 DAYS DMP-777 vs CONTROL [4]: 8.5
Crip1 transcript, 3 DAYS DMP-777 vs CONTROL [4]: 42.6
Dcc1 transcript, 3 DAYS DMP-777 vs CONTROL [4]: 10.0
Ereg transcript, 3 DAYS DMP-777 vs CONTROL [4]: 28.9
ExoscB transcript, 3 DAYS DMP-777 vs CONTROL [4]: 6.7
Fignl1 transcript, 3 DAYS DMP-777 vs CONTROL [4]: 6.6
Gadd45b transcript, 3 DAYS DMP-777 vs CONTROL [4]: 5.0
Il1m transcript, 3 DAYS DMP-777 vs CONTROL [4]: 18.5
Lgals3 transcript, 3 DAYS DMP-777 vs CONTROL [4]: 153.3
Lig1 transcript, 3 DAYS DMP-777 vs CONTROL [4]: 9.6
Mcm6 transcript, 3 DAYS DMP-777 vs CONTROL [4]: 36.4
Ncapg transcript, 3 DAYS DMP-777 vs CONTROL [4]: 3.2
Pole transcript, 3 DAYS DMP-777 vs CONTROL [4]: 11.3
Rad51 transcript, 3 DAYS DMP-777 vs CONTROL [4]: 10.5
Rad54b transcript, 3 DAYS DMP-777 vs CONTROL [4]: 6.6
Rfc3 transcript, 3 DAYS DMP-777 vs CONTROL [4]: 6.1
Rfc4 transcript, 3 DAYS DMP-777 vs CONTROL [4]: 8.4
Rrm1 transcript, 3 DAYS DMP-777 vs CONTROL [4]: 8.4
Tk1 transcript, 3 DAYS DMP-777 vs CONTROL [4]: 11.5
Top2a transcript, 3 DAYS DMP-777 vs CONTROL [4]: 6.4
Trip13 transcript, 3 DAYS DMP-777 vs CONTROL [4]: 8.6
Uhrf1 transcript, 3 DAYS DMP-777 vs CONTROL [4]: 8.8
WDNM1 transcript, 3 DAYS DMP-777 vs CONTROL [4]: 345.9
Wfdc2 transcript, 3 DAYS DMP-777 vs CONTROL [4]: 67.5
Mcm5 * transcript, 3 DAYS DMP-777 vs CONTROL [5]: 36.2
Mcm10 * transcript, 3 DAYS DMP-777 vs CONTROL [5]: 38.3
Prc1 transcript, 3 DAYS DMP-777 vs CONTROL [5]: 6.9
Rad51ap1 * transcript, 3 DAYS DMP-777 vs CONTROL [5]: 6.1
Ris2* transcript, 3 DAYS DMP-777 vs CONTROL [5]: 41.3
Mcm5 * transcript, 3 DAYS DMP-777 vs CONTROL [6]: 18.2
Mcm10 * transcript, 3 DAYS DMP-777 vs CONTROL [6]: 10.1
Prc1 transcript, 3 DAYS DMP-777 vs CONTROL [6]: 7.4
Rad51ap1 * transcript, 3 DAYS DMP-777 vs CONTROL [6]: 7.4
Ris2* transcript, 3 DAYS DMP-777 vs CONTROL [6]: 10.3
increase in the expression of the HE4 gene (gene microarray, DMP-777-treated gastrin knockout mice vs untreated): greater than 16 fold

— patent US7811778B2, “Methods of screening for gastrointestinal cancer” (Vanderbilt University, priority 2006, dated 2010)
